Experimental data taken from patent publication US20130150455A1, “METHOD FOR TREATING MECHANICAL ALLODYNIA COMPRISING ADMINISTRATION OF EUGENOL” (SNU R&DB FOUNDATION, priority 2011, published 2013).
pIC50: −log10 of the molar value. “Also recorded” adds a separate entry of the source.

How the values were obtained:
injured nerve fibers = settings: in vivo; cited from earlier work
Ih conductance = settings: cited from earlier work
[1] = system: voltage-gated sodium channels (VGSCs); test: VGSC currents in TG neurons in normal bath solution; assay type: cell-based, rat; settings: 200 μM, n=3
Description: (B) The left figure represents the comparison of action potentials at an expanded time scale before and after exposure to eugenol (200 μM), and the Right figure represents a summary of the dV/dt analysis. (C) The left figure represents superimposed current traces before and during exposure to eugenol (200 μM) in the normal bath solution where inward currents result from VGSCs, and the right figure represents a summary of eugenol-induced VGSC currents inhibition (n=3).
Whole-cell recordings were made using patch electrodes (4 to 6 MΩ) pulled from borosilicate glass on a Brown-Flaming P-97 horizontal micropipette puller (Sutter Instruments, Novato, Calif.). Voltage- and current-clamp experiments were performed using an HEKA EPC9 amplifier and digitized using ITC16 and Pulse v8.54 software (both from HEKA, Lambrecht/Pfalz, Germany). Signals were filtered at 1 kHz and sampled at 3 kHz. Series resistance was typically less than 20 MΩ and was compensated by about 70 to 80%. Electrical recordings were performed at room temperature. The 3 M KCl agar bridge (Warner Instruments, Hamden, Conn.) is used to avoid high liquid junction potentials. Data were analyzed by Origin 6.0 software.
Extracellular solution containing 140 mM NaCl, 2 mM CaCl2, 1 mM MgCl2, 5 mM KCl, 10 mM HEPES, 10 mM D-glucose was adjusted to pH 7.4 with NaOH, 290 to 310 mOsm. […]

[2] = system: hyperpolarization-activated current (Ih) in TG neurons (HCN channels); test: Whole-cell recordings of Ih in TG neurons; assay type: cell-based, rat
TG neurons = test: Current-clamp action potential firing in TG neurons; assay type: cell-based, rat; settings: 200 μM
Description: TG neurons from 2- to 7-day-old neonatal rats or adult rats (200 to 300 g) were prepared as previously described [Fang, Z. et al., J. Biol. Chem., 2007, 282: 4757-4764]. Briefly, TG neurons prepared in 4° C. Hanks balanced salt solution (Welgene, Daegu, Korea) were incubated in 2 mL Hanks balanced salt solution containing 0.167% trypsin (Invitrogen, Carlsbad, Calif.) at 37° C. for 40 min. The cells were washed in DMEM and triturated with a flame-polished Pasteur pipette to separate cells and remove processes, and subsequently centrifuged (750 RPM, 5 min), resuspended and placed on 0.5 mg/mL poly-L-ornithine (Sigma, St. Louis, Mo.)-coated glass coverslips (12 mm in diameter). The cells were maintained at 37° C. in a […]/5% CO2 incubator.
Whole-cell recordings were made using patch electrodes (4 to 6 MΩ) pulled from borosilicate glass on a Brown-Flaming P-97 horizontal micropipette puller (Sutter Instruments, Novato, Calif.). Voltage- and current-clamp experiments were performed using an HEKA EPC9 amplifier and digitized using ITC16 and Pulse v8.54 software (both from HEKA, Lambrecht/Pfalz, Germany). […] Data were analyzed by Origin 6.0 software. […]
Ih was elicited by a 2 s pulse from a holding potential of −50 mV to −120 mV in 10 mV steps. […] The reversal potential of the eugenol-sensitive currents was determined by measuring the tail currents. […]

ION-CCI rats [3] = test: Thermal hyperalgesia, head withdrawal latency to radiant heat; assay type: in vivo, rat
Description: (§1) All surgical and experimental procedures were reviewed and approved by the Institutional Animal Care and Use Committee at the School of Dentistry, Seoul National University. Animal treatments were performed in strict accordance with the ethical guidelines of the International Association for the Study of Pain for the investigations of experimental pain in conscious animals [Zimmermann, M., Pain, 1983, 16: 109-110], and the National Institute of Health Guide for the Care and Use of Laboratory Animals. Behavioral tests were carried out on male Sprague Dawley rats (OrientBio, Sungnam, Korea) weighing 200-250 g. The rats were maintained in a temperature-controlled room with a 12/12-h light/dark cycle and fed food and water ad libitum. The animals were allowed to habituate to the housing facilities for 1 week before the experiments.
(§2) Surgical procedures were performed under 0.5 mL/kg (i.m.) of a mixture of equal volumes of ketamine (100 mg/mL) and xylazine (20 mg/mL) anesthesia. Under anesthesia, a chronic constriction injury of the infraorbital nerve (ION-CCI) was performed from the original description of Imamura et al. [Imamura, Y. et al., Exp. Brain Res., 1997, 116: 97-103]. A 1-cm-long incision was made along the gingivobuccal margin. The incision was begun proximal to the first molar. Approximately 0.5 cm of the ION was separated from the adhering tissue, and 2 ligatures (5-0 chromic gut) were tied loosely around it. The incision was sutured at 3 points with 4-0 silk. The sham operation was performed without ligation of the infraorbital nerve.
Thermal hyperalgesia was also determined as previously described [Ahn, D. K. et al., Pain, 2009, 146: 114-120; Park, C. K. et al., Pain, 2009, 144: 84-94]. Each rat was placed in a customized cylinder-type acrylic rodent restrainer (height 40 to 60 mm, length 70 to 120 mm). […] Each restrainer was placed in a darkened and noise-free room, and the animals were habituated for at least 30 min before the start of the experiment. After radiant heat was applied to the midregion of the left vibrissa pad, the head withdrawal latency was determined. The application of heat stimuli was performed using an infrared thermal stimulator (Infrared Diode Laser, LVI-808-10, LVI tech, Seoul, Korea). The power and current of the thermal stimulator were adjusted to 11 W and 18.1 A, respectively. The thermal stimuli produced stable withdrawal latencies of approximately 11 s for a 10-cm distance from the heat source to the vibrissa pad. […] After eugenol (10 μg/30 μL or 50 μg/30 μL; 2 mM or 10 mM, respectively) was administered subcutaneously into the vibrissa pad, the latencies of withdrawal responses were determined at 10, 20, 30, 40, 50, and 60 min and 24 h after eugenol injection. […]

[4] = system: voltage-gated sodium channels (VGSCs); settings: conventional concentration, equals 50 μg; cited from earlier work
ION-CCI rats [5] = settings: >50 μg; cited from earlier work
ION-CCI rats [6] = test: Mechanical allodynia, air-puff threshold head withdrawal test; assay type: in vivo, rat
Description: as §1, §2
On postoperative 7 day, ION-CCI rats were placed in customized observation cages that were then placed in a darkened and noise-free room to conduct behavioral observations. The animals were acclimated for at least 30 min. Mechanical allodynia was determined as previously described [Ahn, D. K. et al., Pain, 2009, 146: 114-120], by observing withdrawal behavior, produced by 10 successive trials of constant air-puff pressure (4-s duration, 10-s intervals) in freely moving rats. The intensity and intervals of the air-puff pressure were controlled with a pneumatic pump module (BH2 system, Harvard Apparatus, Holliston, Mass.). The air puffs were applied through a 26-gauge metal tube (length, 10 cm) located 1 cm from the skin at a 90° angle. Thresholds were determined through the air-puff pressure at which each rat withdrew its head in 50% of the trials. The cutoff pressure for the air puffs was 40 psi. […] After eugenol (1 μg/30 μL, 5 μg/30 μL or 10 μg/30 μL; 200 μM, 1 mM, or 2 mM, respectively) was administered subcutaneously into the vibrissa pad, air-puff thresholds were determined at 15 and 30 min, and at 1, 2, 3, 4, 5, 6, and 24 hr after eugenol injection. In the control group, 30 μL of the vehicle (30% DMSO/saline) was injected subcutaneously.

[7] = concentration lower than that which would inhibit VGSCs (50 μg; 10 mM)

## CCN(c1ccccc1)c1cc(=NC)n(C)c(C)n1.Cl [ZD7288]
Injured nerve fibers
  pain behavior: reversed
  spontaneous discharges in injured nerve fibers: reversed
Ih conductance
  action potential duration: prolonged
  repetitive firing during tetanic bursts: diminished

## C=CCc1ccc(O)c(OC)c1 [eugenol, 4-allyl-2-methoxyphenol]
[1]
  VGSC currents: not affected
[2]; 200 μM eugenol, 8-Br-cAMP (100 μM) in pipette solution, n=6
  eugenol-induced Ih inhibition with 8-Br-cAMP: 17.5±3.7%
[2]; 200 μM eugenol, Rp-cAMPs (100 μM), n=6
  eugenol-induced Ih inhibition with Rp-cAMPs: 25.7±3.4%
[2]; 200 μM eugenol, Sp-cAMPs (100 μM), n=5
  eugenol-induced Ih inhibition with Sp-cAMPS: 20.1±3.1%
[2]; 200 μM eugenol, TG neurons pretreated 5 min with NEM (50 μM), n=8
  Ih inhibition after pretreatment with NEM: 69.2±4.4%
[2]; 200 μM, TG neurons of adult (naive) rats, n=11
  Ih inhibition: 73.0±3.9%
[2]; 200 μM, TG neurons of neonatal rats, n=27
  Ih inhibition: 63.3±1.6%
[2]; 200 μM, injured DiI-labeled TG neurons of ION-CCI rats, n=7
  Ih inhibition: 67.5±4.0%
[2]; 200 μM, sequential application, FIG. 2A
  reversibility of Ih inhibition: reversible and repetitively reproduced
[2]; 200 μM, step pulses −50 to −120 mV, full range of voltages
  maximal Ih amplitude: reduced
[2]; 200 μM, without NEM, n=8, FIG. 6A
  Eugenol-induced Ih inhibition: 66.1±1.8%
[2]; 500 μM and 1 mM, FIG. 3
  Ih block: complete Ih block
[2]; after application of 200 μM eugenol, n=4, control −29.4±2.3 mV
  mean Vrev (reversal potential of Ih): −25.8±1.4 mV
[2]; read-out: IC50 of Ih inhibition, TG neurons, dose dependent, FIG. 3
  pIC50: 3.80
TG neurons
  dV/dt of action potential: not changed
TG neurons; 50 pA depolarizing current injection, n=4
  firing rates of action potentials: reduced
ION-CCI rats [3]; 50 μg subcutaneous, n=6, p<0.05
  thermal hyperalgesia / thermal hypersensitivity: significantly reduced; also recorded: significantly inhibited
ION-CCI rats [3]; <10 μg
  thermal hyperalgesia: not effective
ION-CCI rats [3]; [7]
  effect on thermal hyperalgesia: no effect
ION-CCI rats [3]; low dose 10 μg subcutaneous, n=6
  thermal hypersensitivity: no effect
[4]
  concentration at which eugenol inhibits VGSCs: 10 mM
ION-CCI rats [5]
  thermal pain / thermal hyperalgesia, previous study: blocks thermal pain in a dose-dependent manner; also recorded: ameliorated thermal hyperalgesia
ION-CCI rats [6]; 1 μg subcutaneous into vibrissa pad, 7 day ION-CCI
  air-puff thresholds: significantly enhanced
ION-CCI rats [6]; 5 to 10 μg subcutaneous, cutoff 40 psi
  air-puff threshold: reached the cutoff
ION-CCI rats [6]; FIG. 7B
  onset of effect: occurred immediately
ION-CCI rats [6]; [7]
  effect on mechanical allodynia: ameliorating effect
ION-CCI rats [6]; subcutaneous 1 μg, 5 μg, 10 μg, n=6 per group, p<0.05
  antiallodynic effects on mechanical allodynia: significantly produced prolonged the antiallodynic effects
